Experimental data as given in patent EP3046573B1, “AMYLIN ANALOGUES” (Zealand Pharma A/S, priority 2013, dated 2015).
Like-named read-outs stand apart in the source and are kept apart here. Numbered stars: 1 amine (or outer) side, 2 acyl side, 3 side chain; on linkers, the order of the positions; unused ones are H or OH. Bridge positions count the residues as written; N and C are the ends. Square brackets hold non-standard residues; d marks the D form. Peptide text beside a SMILES is read from it. * marks the point of attachment. C20 diacid = O=C(O)CCCCCCCCCCCCCCCCCCC(=O)*; γGlu = O=C(O)[C@H](CCC(=O)[*:2])N[*:1]; NMeI = CC[C@H](C)[C@H](NC)C(=O)O; Sar = CNCC(=O)O

Assays:
[1] = target: T1, human calcitonin receptor (hCTR2) (Homo sapiens, UniProt P30988); experiment: hCTR2 assay: induction of cAMP (AlphaScreen cAMP Assay kit) in COS7 cells expressing hCTR2; type: cell-based
T1 construct: expressed in transfected cells
T1 sequence (P30988 25-474): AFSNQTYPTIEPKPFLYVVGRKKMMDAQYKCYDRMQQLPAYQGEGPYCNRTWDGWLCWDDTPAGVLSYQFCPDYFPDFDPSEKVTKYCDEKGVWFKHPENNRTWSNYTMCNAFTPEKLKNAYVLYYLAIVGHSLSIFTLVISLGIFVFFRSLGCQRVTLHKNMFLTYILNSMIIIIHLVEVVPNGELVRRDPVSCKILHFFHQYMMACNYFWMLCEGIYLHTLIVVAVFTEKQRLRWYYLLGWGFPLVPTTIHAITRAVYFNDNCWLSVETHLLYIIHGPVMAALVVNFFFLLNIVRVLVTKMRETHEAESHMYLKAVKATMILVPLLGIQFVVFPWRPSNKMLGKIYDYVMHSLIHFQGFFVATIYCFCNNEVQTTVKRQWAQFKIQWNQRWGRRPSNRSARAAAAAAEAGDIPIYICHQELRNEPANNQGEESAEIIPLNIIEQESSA
In short: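 Stable RAMP-naive COS7 clone expressing hCTR2 was stimulated with increasing peptide concentrations in Tyrode buffer (pH 7.4) with 100 µM IBMX and 0.1% casein for 15 min at 37° C. Cells were lysed and cAMP measured by AlphaScreen. EC50 and efficacy relative to pramlintide came from 4PL curve fits.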

[2] = Solubility assessment (turbidity absorbance at 325 nm); type: physicochemical; conditions: stock 2 mg/ml diluted 1:1, ambient temperature (typically 25°C), n=1; for Solubility, Acetate buffer pH 4: 100 mM acetate buffer pH 4.0; for Solubility, Acetate buffer pH 5: 100 mM acetate buffer pH 5.0; for Solubility, Histidine buffer pH 6: 100 mM histidine buffer pH 6.0; for Solubility, Histidine buffer pH 7: 100 mM histidine buffer pH 7.0; for Solubility, Phosphate buffer pH 6: 100 mM phosphate buffer pH 6.0; for Solubility, Phosphate buffer pH 7: 100 mM phosphate buffer pH 7.0; for Solubility, Phosphate buffer pH 7.5: 100 mM phosphate buffer pH7.5
In short: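 Peptide stock (2 mg/ml, water pH 2.5) diluted 1:1 into 100 mM acetate (pH 4.0, 5.0), histidine (pH 6.0, 7.0) or phosphate (pH 6.0–7.5) buffer; absorbance at 325 nm read at about 25°C, n=1. A325 ≤ 0.02 taken as solubility ≥ 1 mg/ml.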

[3] = target: T2, human amylin receptor 3 (hAMYR3) consisting of hCTR2 co-expressed with human Receptor Activity Modifying Protein 3 (hRAMP3) (Homo sapiens, UniProt O60896+P30988); experiment: hAMYR3 assay: induction of cAMP (AlphaScreen cAMP Assay kit) in COS7 cells expressing hAMYR3; type: cell-based
T2 construct: expressed in transfected cells
T2 sequence (P30988 25-474): T1 sequence (P30988 25-474)
T2 sequence (O60896 24-148 partner): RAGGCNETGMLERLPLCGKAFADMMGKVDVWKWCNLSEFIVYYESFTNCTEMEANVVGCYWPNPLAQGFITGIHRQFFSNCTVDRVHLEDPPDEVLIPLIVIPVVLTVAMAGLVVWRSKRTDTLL
In short: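 Stable COS7 clone co-expressing hCTR2 and hRAMP3, stimulated 15 min at 37° C with increasing peptide in Tyrode buffer pH 7.4 with 100 µM IBMX and 0.1% casein. cAMP measured by AlphaScreen after lysis; EC50 and % efficacy versus pramlintide from 4PL fit.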

[4] = cAMP induction in COS7 cells expressing hCTR2, average of a minimum of 3 determinations, read-out: hCTR2 EC50

CC[C@H](C)[C@@H](C(=O)N[C@@H](CC(C)C)C(=O)N[C@@H](CO)C(=O)N[C@@H](CO)C(=O)N[C@H](C(=O)N[C@@H](CCC(=O)O)C(=O)N[C@H](C(=O)NCC(=O)N[C@@H](CO)C(=O)N[C@@H](CCC(=O)O)C(=O)N[C@H](C(=O)N1CCC[C@H]1C(N)=O)[C@@H](C)O)C(C)C)[C@@H](C)O)N(C)C(=O)[C@H](C)NC(=O)CN(C)C(=O)[C@H](Cc1ccccc1)NC(=O)[C@H](CO)NC(=O)[C@H](CO)NC(=O)[C@H](CO)NC(=O)[C@H](CO)NC(=O)[C@H](CCCNC(=N)N)NC(=O)[C@H](Cc1c[nH]cn1)NC(=O)[C@H](CC(C)C)NC(=O)[C@H](Cc1ccccc1)NC(=O)[C@H](CCC(=O)O)NC(=O)[C@H](C)NC(=O)[C@H](CC(C)C)NC(=O)[C@H](CCCNC(=N)N)NC(=O)[C@H](CC(=O)O)NC(=O)[C@@H](NC(=O)[C@H](C)NC(=O)[C@@H]1CSSC[C@H](NC(=O)[C@H](CCCNC(=N)N)NC(=O)CC[C@H](NC(=O)CCCCCCCCCCCCCCCCCCC(=O)O)C(=O)O)C(=O)N[C@@H](CC(=O)O)C(=O)N[C@@H]([C@@H](C)O)C(=O)N[C@@H](C)C(=O)N[C@@H]([C@@H](C)O)C(=O)N1)[C@@H](C)O [Compound 149, [19CD]-isoGlu-RC()DTATC()ATDRLAEFLHRSSSSF-Gly(Me)-A-Ile(Me)-LSSTEVGSETP-NH2] ({C20 diacid-γGlu}-RCDTATCATDRLAEFLHRSSSSF[Sar]A[NMeI]LSSTEVGSETP-NH2; disulfide 2-7)
EC50 [1]: 0.16 nM | Solubility, Acetate buffer pH 4 [2]: SS (SS indicates solubility ≥ 1mg/ml) | Solubility, Acetate buffer pH 5 [2]: SS (SS indicates solubility ≥ 1mg/ml) | Solubility, Histidine buffer pH 6 [2]: SS (SS indicates solubility ≥ 1mg/ml) | Solubility, Histidine buffer pH 7 [2]: SS (SS indicates solubility ≥ 1mg/ml) | Solubility, Phosphate buffer pH 6 [2]: SS (SS indicates solubility ≥ 1mg/ml) | Solubility, Phosphate buffer pH 7 [2]: SS (SS indicates solubility ≥ 1mg/ml) | Solubility, Phosphate buffer pH 7.5 [2]: SS (SS indicates solubility ≥ 1mg/ml) | EC50 ([3]; cAMP induction in COS7 cells expressing hAMYR3, average of a minimum of 3 determinations, read-out: hAMY R3 EC50): 0.26 nM

CC[C@H](C)[C@@H](C(=O)N[C@@H](CC(C)C)C(=O)N[C@@H](CO)C(=O)N[C@@H](CO)C(=O)N[C@H](C(=O)N[C@@H](CCC(=O)O)C(=O)N[C@H](C(=O)NCC(=O)N[C@@H](CO)C(=O)N[C@@H](CCC(=O)O)C(=O)N[C@H](C(=O)N1CCC[C@H]1C(N)=O)[C@@H](C)O)C(C)C)[C@@H](C)O)N(C)C(=O)[C@H](C)NC(=O)CN(C)C(=O)[C@H](Cc1ccccc1)NC(=O)[C@H](CO)NC(=O)[C@H](CO)NC(=O)[C@H](CO)NC(=O)[C@H](CO)NC(=O)[C@H](CCCNC(=N)N)NC(=O)[C@H](Cc1c[nH]cn1)NC(=O)[C@H](CC(C)C)NC(=O)[C@H](Cc1ccccc1)NC(=O)[C@H](CCC(=O)O)NC(=O)[C@H](C)NC(=O)[C@H](CC(C)C)NC(=O)[C@H](CCCNC(=N)N)NC(=O)CNC(=O)[C@@H](NC(=O)[C@H](C)NC(=O)[C@@H]1CSSC[C@H](NC(=O)[C@H](CCCNC(=N)N)NC(=O)CC[C@H](NC(=O)CCCCCCCCCCCCCCCCCCC(=O)O)C(=O)O)C(=O)NCC(=O)N[C@@H]([C@@H](C)O)C(=O)N[C@@H](C)C(=O)N[C@@H]([C@@H](C)O)C(=O)N1)[C@@H](C)O [Compound 131, [19CD]-isoGlu-RC()GTATC()ATGRLAEFLHRSSSSF-Gly(Me)-A-Ile(Me)-LSSTEVGSETP-NH2] ({C20 diacid-γGlu}-RCGTATCATGRLAEFLHRSSSSF[Sar]A[NMeI]LSSTEVGSETP-NH2; disulfide 2-7)
EC50 [1, 4]: 0.1 nM | Solubility, Acetate buffer pH 4 [2]: SS (SS indicates solubility ≥ 1mg/ml) | Solubility, Acetate buffer pH 5 [2]: SS (SS indicates solubility ≥ 1mg/ml) | Solubility, Histidine buffer pH 6 [2]: SS (SS indicates solubility ≥ 1mg/ml) | Solubility, Histidine buffer pH 7 [2]: SS (SS indicates solubility ≥ 1mg/ml) | Solubility, Phosphate buffer pH 6 [2]: SS (SS indicates solubility ≥ 1mg/ml) | Solubility, Phosphate buffer pH 7 [2]: SS (SS indicates solubility ≥ 1mg/ml) | Solubility, Phosphate buffer pH 7.5 [2]: SS (SS indicates solubility ≥ 1mg/ml) | EC50 [3]: 0.18 nM

CC[C@H](C)[C@@H](C(=O)N[C@@H](CC(C)C)C(=O)N[C@@H](CO)C(=O)N[C@@H](CO)C(=O)N[C@H](C(=O)N[C@@H](CCC(=O)O)C(=O)N[C@H](C(=O)NCC(=O)N[C@@H](CO)C(=O)N[C@@H](CCC(=O)O)C(=O)N[C@H](C(=O)N1CCC[C@H]1C(N)=O)[C@@H](C)O)C(C)C)[C@@H](C)O)N(C)C(=O)[C@H](C)NC(=O)CN(C)C(=O)[C@H](Cc1ccccc1)NC(=O)[C@H](CO)NC(=O)[C@H](CO)NC(=O)[C@H](CO)NC(=O)[C@H](CO)NC(=O)[C@H](CCCNC(=N)N)NC(=O)[C@H](Cc1c[nH]cn1)NC(=O)[C@H](CC(C)C)NC(=O)[C@H](Cc1ccccc1)NC(=O)[C@H](CCC(=O)O)NC(=O)[C@H](C)NC(=O)[C@H](CC(C)C)NC(=O)[C@H](CCCNC(=N)N)NC(=O)[C@H](CCC(N)=O)NC(=O)[C@@H](NC(=O)[C@H](C)NC(=O)[C@@H]1CSSC[C@H](NC(=O)[C@H](CCCNC(=N)N)NC(=O)CC[C@H](NC(=O)CCCCCCCCCCCCCCCCCCC(=O)O)C(=O)O)C(=O)N2CCC[C@H]2C(=O)N[C@@H]([C@@H](C)O)C(=O)N[C@@H](C)C(=O)N[C@@H]([C@@H](C)O)C(=O)N1)[C@@H](C)O [Compound 129, [19CD]-isoGlu-RC()PTATC()ATQRLAEFLHRSSSSF-Gly(Me)-A-Ile(Me)-LSSTEVGSETP-NH2] ({C20 diacid-γGlu}-RCPTATCATQRLAEFLHRSSSSF[Sar]A[NMeI]LSSTEVGSETP-NH2; disulfide 2-7)
EC50 [1, 4]: 0.15 nM | Solubility, Acetate buffer pH 4 [2]: SS (SS indicates solubility ≥ 1mg/ml) | Solubility, Acetate buffer pH 5 [2]: SS (SS indicates solubility ≥ 1mg/ml) | Solubility, Histidine buffer pH 6 [2]: SS (SS indicates solubility ≥ 1mg/ml) | Solubility, Histidine buffer pH 7 [2]: SS (SS indicates solubility ≥ 1mg/ml) | Solubility, Phosphate buffer pH 6 [2]: SS (SS indicates solubility ≥ 1mg/ml) | Solubility, Phosphate buffer pH 7 [2]: SS (SS indicates solubility ≥ 1mg/ml) | Solubility, Phosphate buffer pH 7.5 [2]: SS (SS indicates solubility ≥ 1mg/ml) | EC50 [3]: 0.15 nM

CC[C@H](C)[C@@H](C(=O)N[C@@H](CC(C)C)C(=O)N[C@@H](CO)C(=O)N[C@@H](CO)C(=O)N[C@H](C(=O)N[C@@H](CC(N)=O)C(=O)N[C@H](C(=O)NCC(=O)N[C@@H](CO)C(=O)N[C@@H](CC(N)=O)C(=O)N[C@H](C(=O)N1CCC[C@H]1C(N)=O)[C@@H](C)O)C(C)C)[C@@H](C)O)N(C)C(=O)[C@H](C)NC(=O)CN(C)C(=O)[C@H](Cc1ccccc1)NC(=O)[C@H](CC(N)=O)NC(=O)[C@H](CC(N)=O)NC(=O)[C@H](CO)NC(=O)[C@H](CO)NC(=O)[C@H](CCCNC(=N)N)NC(=O)[C@H](Cc1c[nH]cn1)NC(=O)[C@H](CC(C)C)NC(=O)[C@H](Cc1ccccc1)NC(=O)[C@H](CCC(=O)O)NC(=O)[C@H](C)NC(=O)[C@H](CC(C)C)NC(=O)[C@H](CCCNC(=N)N)NC(=O)[C@H](CCC(N)=O)NC(=O)[C@@H](NC(=O)[C@H](C)NC(=O)[C@@H]1CSSC[C@H](NC(=O)[C@H](CCCNC(=N)N)NC(=O)[C@H](CCCCN)NC(=O)CC[C@H](NC(=O)CCCCCCCCCCCCCCCCCCC(=O)O)C(=O)O)C(=O)N[C@@H](CC(N)=O)C(=O)N[C@@H]([C@@H](C)O)C(=O)N[C@@H](C)C(=O)N[C@@H]([C@@H](C)O)C(=O)N1)[C@@H](C)O [Compound 84, [19CD]-isoGlu-KRC()NTATC()ATQRLAEFLHRSSNNF-Gly(Me)-A-Ile(Me)-LSSTNVGSNTP-NH2] ({C20 diacid-γGlu}-KRCNTATCATQRLAEFLHRSSNNF[Sar]A[NMeI]LSSTNVGSNTP-NH2; disulfide 3-8)
EC50 [1]: 0.11 nM | Solubility, Acetate buffer pH 4 [2]: SS (SS indicates solubility ≥ 1mg/ml) | Solubility, Acetate buffer pH 5 [2]: SS (SS indicates solubility ≥ 1mg/ml) | Solubility, Histidine buffer pH 6 [2]: SS (SS indicates solubility ≥ 1mg/ml) | Solubility, Histidine buffer pH 7 [2]: SS (SS indicates solubility ≥ 1mg/ml) | Solubility, Phosphate buffer pH 6 [2]: SS (SS indicates solubility ≥ 1mg/ml) | Solubility, Phosphate buffer pH 7 [2]: SS (SS indicates solubility ≥ 1mg/ml) | Solubility, Phosphate buffer pH 7.5 [2]: SS (SS indicates solubility ≥ 1mg/ml) | EC50 [3]: 0.1 nM
